Results reported in US20230102554A1 (GB002, INC., priority 2019, published 2023).
One block for each compound: values may come before it.

Experiments:
[1] = molecular target: T1, Human PDGFRα, cytoplasmic domain (GST-PDGFRα) (Homo sapiens, UniProt P16234); test: Human PDGFRα biochemical inhibition assay (off-chip Mobility Shift Assay)
T1 construct: made in house

[2] = molecular target: T2, Human PDGFRβ, cytoplasmic domain (GST-PDGFRβ) (Homo sapiens, UniProt P09619); test: Human PDGFRβ biochemical inhibition assay (off-chip Mobility Shift Assay)
T2 construct: made in house
T2 sequence (P09619 with tags, fused parts or gaps): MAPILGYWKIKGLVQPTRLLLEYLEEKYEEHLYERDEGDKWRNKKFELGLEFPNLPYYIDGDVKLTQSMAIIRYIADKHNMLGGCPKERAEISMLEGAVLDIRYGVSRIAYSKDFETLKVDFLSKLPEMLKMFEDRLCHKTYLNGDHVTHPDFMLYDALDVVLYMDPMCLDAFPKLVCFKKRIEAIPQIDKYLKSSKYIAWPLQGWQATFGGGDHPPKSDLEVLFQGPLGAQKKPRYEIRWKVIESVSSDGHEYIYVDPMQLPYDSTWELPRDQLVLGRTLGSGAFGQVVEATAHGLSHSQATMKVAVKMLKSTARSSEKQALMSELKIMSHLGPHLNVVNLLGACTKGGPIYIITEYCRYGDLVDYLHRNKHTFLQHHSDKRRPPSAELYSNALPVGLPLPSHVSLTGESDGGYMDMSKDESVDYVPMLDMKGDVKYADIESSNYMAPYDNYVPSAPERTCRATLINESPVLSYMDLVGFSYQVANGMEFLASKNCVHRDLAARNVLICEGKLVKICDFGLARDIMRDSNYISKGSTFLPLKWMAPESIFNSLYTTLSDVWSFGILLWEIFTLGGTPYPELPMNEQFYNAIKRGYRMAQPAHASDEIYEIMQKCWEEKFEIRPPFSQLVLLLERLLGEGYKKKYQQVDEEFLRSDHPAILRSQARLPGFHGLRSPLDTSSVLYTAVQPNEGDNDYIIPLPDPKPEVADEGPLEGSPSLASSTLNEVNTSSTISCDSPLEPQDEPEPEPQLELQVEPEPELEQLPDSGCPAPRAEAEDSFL
How it was run: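 GST-tagged cytoplasmic domain (aa 557-1106) from baculovirus was incubated 1 h at room temperature with compound, CSKtide, ATP at Km and Mg²⁺ in HEPES buffer, pH 7.5. Phosphorylated and unphosphorylated peptide were separated by off-chip mobility shift, and the product ratio P/(P+S) gave percent inhibition.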

T1 sequence (P16234 550-1089 T674I): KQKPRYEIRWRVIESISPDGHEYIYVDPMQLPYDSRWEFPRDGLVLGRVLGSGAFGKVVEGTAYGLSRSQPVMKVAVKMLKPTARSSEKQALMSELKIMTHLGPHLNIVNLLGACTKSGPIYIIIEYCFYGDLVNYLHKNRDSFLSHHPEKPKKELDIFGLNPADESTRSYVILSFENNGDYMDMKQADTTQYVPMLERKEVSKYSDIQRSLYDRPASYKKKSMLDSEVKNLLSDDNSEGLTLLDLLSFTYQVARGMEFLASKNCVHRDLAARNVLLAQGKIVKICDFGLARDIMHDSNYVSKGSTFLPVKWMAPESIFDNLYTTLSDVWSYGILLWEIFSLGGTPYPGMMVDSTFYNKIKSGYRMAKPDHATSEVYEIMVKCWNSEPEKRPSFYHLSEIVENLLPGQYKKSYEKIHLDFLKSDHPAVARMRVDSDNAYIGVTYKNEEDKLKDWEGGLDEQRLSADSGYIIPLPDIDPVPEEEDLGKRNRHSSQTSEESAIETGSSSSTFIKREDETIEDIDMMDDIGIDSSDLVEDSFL

IC50 [1]: < 300 nM | IC50 [2]: < 300 nM
Compound: CCn1cc2ncc(N[C@@H](C)c3cccc(NC(=O)c4cc(F)c(CN5CCN(C)CC5)c(Cl)c4)c3)nc2n1 [Compound 489, (S)-3-chloro-N-(3-(1-((2-ethyl-2H-pyrazolo[3,4-b]pyrazin-6-yl)amino)ethyl)phenyl)-5-fluoro-4-((4-methylpiperazin-1-yl)methyl)benzamide]

IC50 [1]: < 300 nM | IC50 [2]: < 300 nM
Compound: CCn1cc2ncc(N[C@@H](C)c3cccc(NC(=O)c4cc(F)c(CN5CC6(COC6)C5)c(Cl)c4)c3)nc2n1 [Compound 490, (S)-4-((2-oxa-6-azaspiro[3.3]heptan-6-yl)methyl)-3-chloro-N-(3-(1-((2-ethyl-2H-pyrazolo[3,4-b]pyrazin-6-yl)amino)ethyl)phenyl)-5-fluorobenzamide]

IC50 [1]: < 300 nM | IC50 [2]: < 300 nM
Compound: CCn1cc2ncc(N[C@@H](C)c3cccc(NC(=O)c4ccc(CN5CC[C@H](O)C5)c(Cl)c4)c3)nc2n1 [Compound 494, 3-chloro-N-(3-((5)-1-((2-ethyl-2H-pyrazolo[3,4-b]pyrazin-6-yl)amino)ethyl)phenyl)-4-(((S)-3-hydroxypyrrolidin-1-yl)methyl) benzamide]

IC50 [1]: < 300 nM | IC50 [2]: < 300 nM
Compound: CCn1cc2ncc(N[C@@H](C)c3cccc(NC(=O)c4ccc(CN5CC(F)C5)c(Cl)c4)c3)nc2n1 [Compound 495, (S)-3-chloro-N-(3-(1-((2-ethyl-2H-pyrazolo[3,4-b]pyrazin-6-yl)amino)ethyl)phenyl)-4-((3-fluoroazetidin-1-yl)methyl) benzamide]

IC50 [1]: < 300 nM | IC50 [2]: < 300 nM
Compound: CCn1cc2ncc(N[C@@H](C)c3cccc(NC(=O)c4ccc(CN5CC(F)C5)c(C)c4)c3)nc2n1 [Compound 497, (S)-N-(3-(1-((2-ethyl-2H-pyrazolo[3,4-b]pyrazin-6-yl)amino)ethyl)phenyl)-4-((3-fluoroazetidin-1-yl)methyl)-3-methylbenzamide]

IC50 [1]: < 300 nM | IC50 [2]: < 300 nM
Compound: CCc1cc(C(=O)Nc2cccc([C@H](C)Nc3cnc4cn(CC)nc4n3)c2)ccc1CN1CC2(COC2)C1 [Compound 499, (S)-4-((2-oxa-6-azaspiro[3,3]heptan-6-yl)methyl)-3-ethyl-N-(3-(1-((2-ethyl-2H-pyrazolo[3,4-b]pyrazin-6-yl)amino)ethyl)phenyl)benzamide]

Further lines, the compound ahead of its results:

Compound: CCn1cc2ncc(N[C@@H](C)c3cc(NC(=O)c4ccc(C(F)(F)F)nc4)cc(F)c3F)nc2n1 [Compound 491, (S)-N-(3-(1-((2-ethyl-2H-pyrazolo[3,4-b]pyrazin-6-yl)amino)ethyl)-4,5-difluorophenyl)-6-(trifluoromethyl)nicotinamide]
IC50 [1]: 300 to 1000 nM | IC50 [2]: 300 to 1000 nM

Compound: CCn1cc2ncc(N[C@@H](C)c3cc(NC(=O)c4ccc(C(F)(F)F)nc4)c(F)cc3F)nc2n1 [Compound 492, (S)-N-(5-(1-((2-ethyl-2H-pyrazolo[3,4-b]pyrazin-6-yl)amino)ethyl)-2,4-difluorophenyl)-6-(trifluoromethyl)nicotinamide]
IC50 [1]: < 300 nM | IC50 [2]: 300 to 1000 nM

Compound: CCn1cc2ncc(N[C@@H](C)c3cccc(NC(=O)c4ccc(CN5CC[C@H](F)C5)c(C)c4)c3)nc2n1 [Compound 493, N-(3-((S)-1-((2-ethyl-2H-pyrazolo[3,4-b]pyrazin-6-yl)amino)ethyl)phenyl)-4-(((S)-3-fluoropyrrolidin-1-yl)methyl)-3-methylbenzamide]
IC50 [1]: < 300 nM | IC50 [2]: < 300 nM

Compound: CCn1cc2ncc(N[C@@H](C)c3cccc(NC(=O)c4ccc(CN5CC(O)C5)c(C)c4)c3)nc2n1 [Compound 496, (S)-N-(3-(1-((2-ethyl-2H-pyrazolo[3,4-b]pyrazin-6-yl)amino)ethyl)phenyl)-4-((3-hydroxyazetidin-1-yl)methyl)-3-methylbenzamide]
IC50 [1]: < 300 nM | IC50 [2]: 300 to 1000 nM

Compound: CCc1cc(C(=O)Nc2cccc([C@H](C)Nc3cnc4cn(CC)nc4n3)c2)ccc1CN1CCN(C)CC1 [Compound 498, (S)-3-ethyl-N-(3-(1-((2-ethyl-2H-pyrazolo[3,4-b]pyrazin-6-yl)amino)ethyl)phenyl)-4-((4-methylpiperazin-1-yl)methyl) benzamide]
IC50 [1]: < 300 nM | IC50 [2]: < 300 nM
